Assay results published in PubChem BioAssay (NCI).
Values joined by “and” are separate entries in the source; they are usually repeats but may differ in a detail not shown here. Equal entries are not always repeated.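 96-well plates; 48 h exposure; 5 concentrations. Endpoints by linear interpolation between flanking doses. Not reached: highest tested concentration assigned. Abbreviation: GI50, concentration required for 50% inhibition of growth. TGI denotes the concentration required for complete inhibition of growth.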

Key:
Assay in all cases: DTP human tumour cell line panel, 48 h
NCI-H460 lung = test system: NCI-H460 lung
HOP-92 NSCLC = test system: HOP-92 NSCLC
HCC-2998 colon = test system: HCC-2998 colon
K-562 leukemia = test system: K-562 leukemia
SK-MEL-2 melanoma = test system: SK-MEL-2 melanoma
A549 NSCLC = test system: A549 NSCLC
U251 CNS = test system: U251 CNS
ACHN renal = test system: ACHN renal
HL-60(TB) leukemia = test system: HL-60(TB) leukemia
MDA-MB-435 = test system: MDA-MB-435

| Structure (SMILES) | TGI (NCI-H460 lung) | TGI (HOP-92 NSCLC) | TGI (HCC-2998 colon) | TGI (K-562 leukemia) | TGI (SK-MEL-2 melanoma) | TGI (A549 NSCLC) | TGI (U251 CNS) | TGI (ACHN renal) | TGI (HL-60(TB) leukemia) | GI50 (NCI-H460 lung) | GI50 (HOP-92 NSCLC) | GI50 (HCC-2998 colon) | GI50 (K-562 leukemia) | GI50 (SK-MEL-2 melanoma) | GI50 (A549 NSCLC) | GI50 (U251 CNS) | TGI (MDA-MB-435) | GI50 (ACHN renal) | GI50 (HL-60(TB) leukemia) | GI50 (MDA-MB-435) |
| --- | --- | --- | --- | --- | --- | --- | --- | --- | --- | --- | --- | --- | --- | --- | --- | --- | --- | --- | --- | --- |
| CC(C)COC(=O)N1N=NC2C3CC(=O)C(O3)C21 (stereo unspecified) | > 100 µM | > 100 µM | > 100 µM | > 100 µM | > 100 µM | > 100 µM | > 100 µM | > 100 µM |  |  |  |  |  |  |  |  |  |  |  |  |
| CO[C@H](C(=O)O[C@H]1C(=O)N2CCC3CCC1C32C)c1ccccc1 (stereo partly specified) | > 100 µM |  | > 100 µM | > 100 µM | > 100 µM | > 100 µM | > 100 µM | > 100 µM | > 100 µM |  |  |  |  |  |  |  |  |  |  |  |
| C[C@]12CC[C@H](OC(=O)Cc3ccc(N(CCCl)CCCl)cc3)CC1CC[C@@H]1C2CC[C@]2(C)NC(=O)CCC12 (stereo partly specified) | 35.1 µM | 35.6 µM | 34.8 µM | 24.8 µM | 48.7 µM | 37.5 µM | 29.3 µM | 27.7 µM | 6.06 µM |  |  |  |  |  |  |  |  |  |  |  |
| C[C@@]1([C@H](OC(=O)c2cccc3ccccc23)C(N)=O)CO1 | > 30.1 µM | 17.3 µM | 18.2 µM | > 37.5 µM | 7.09 µM | > 20.7 µM | 7.89 µM | 2.2 µM |  | 5.5 µM | 2.81 µM | 4.51 µM | 1.13 µM | 1.12 µM | 2.12 µM | 0.997 µM | 1.74 µM | 0.396 µM |  |  |
| CC(=O)O[C@H]1CC[C@@]2(C)C(=CC[C@@H]3C2CC[C@]2(C)C(=O)NC(=O)CC32)C1 (stereo partly specified) | > 100 µM | > 100 µM | > 100 µM | > 100 µM | > 100 µM | > 100 µM | > 100 µM | > 100 µM | > 100 µM |  |  |  |  |  |  |  |  |  |  |  |
| CCN1C(=O)/C(=C\c2coc3ccccc3c2=O)SC1=S | > 100 µM | > 100 µM | > 100 µM | > 100 µM | > 100 µM | > 100 µM | > 100 µM | > 100 µM | > 100 µM |  |  |  |  |  |  |  |  |  |  |  |
| CC[C@@]1(O)C(=O)OCc2c1cc1n(c2=O)Cc2cc3c([N+](=O)[O-])c(O)ccc3nc2-1 | 1.14 µM | 6.56 µM | 13.1 µM | > 100 µM | 6.67 µM | 18.3 µM | 1.22 µM | 0.611 µM | 1.3 µM | 0.053 µM | 1.26 µM | 2.02 µM | 0.84 µM | 2.27 µM | 0.426 µM | 0.0405 µM |  | 0.051 µM | 0.13 µM |  |
| CC1OC(OC23C(=O)CC(C)(O)CC2(O)C=CC2=C3C(=O)c3ccc(C4CC(OC5CCC(OC6CC(O)C(O)C(C)O6)C(C)O5)C(O)C(C)O4)c(O)c3C2=O)CCC1O (stereo unspecified) | 38 µM and 34.3 µM | 28.7 µM and 14.8 µM | 31.1 µM and 27.3 µM | > 100 µM | 31.2 µM and 30.5 µM | 82.1 µM and 65.2 µM | 29.5 µM and 30.8 µM | 31.4 µM and 30.8 µM | > 100 µM |  | 15.2 µM and 4.81 µM |  |  |  |  |  |  |  |  |  |
| CN(Cc1ccccc1)c1ncnc2ccc(Br)cc12 | 26 µM | 25.8 µM | 26.3 µM | 18.6 µM | > 100 µM | 45.8 µM | 24.6 µM | 28.1 µM |  | 10.3 µM | 7.16 µM | 11.9 µM | 4.4 µM | 35.7 µM | 17.5 µM | 11.9 µM | 16.6 µM | 12.6 µM |  | 4.67 µM |
